From US12060355B2, “Compounds for use in the treatment of fascioliasis” (Merck Patent GmbH, priority 2018, dated 2024)
Read-outs that look alike come from different tables or passages of the source.

How the values were obtained:
human HepG2 cell lines = format: cell-based; conditions: human HepG2 cell line
human MRC-5 cell line = assay: Cytotoxicity against human MRC-5 cell line; format: cell-based
Protocol: (§1) The routine biological assays using adult or juvenile S. mansoni worms and cytotoxicity assays using MRC-5 cells have been disclosed previously in Mansour, N. R., et al. (2016). “High Throughput Screening Identifies Novel Lead Compounds with Activity against Larval, Juvenile and Schistosoma mansoni PLoS Negl Trop Dis 10(4): e0004659. Cytotoxicity assays using the HepG2 cell line were carried out as described in Molecular Diversity (2015) 19, 251-261. • (a) F. hepatica adult fluke motility score tested at 5 μM. Motility is scored as per the table below: • Good movement Score 1 • (Curled, sticking on wall, movement on petri plate or conical flask) • Moderate movement Score 2 • (Less vigor but more than 10 seconds pulses or peristaltic waves) • Resting Score 3 • (Less than 10 second pulses in head and body) • Apathetic Score 4 • (Head and body with less than 2 second pulses) • Faint movement of suckers Score 5 • (Movement of oral or ventral suckers only, whole body paralyzed) • Inert Score 6 • (No movement at all or dead) • (b) S. mansoni adult worms • (c) S. mansoni juvenile worms • (d) S. haemotobium adult worms • (e) Cytotoxicity against human MRC-5 cell line • (f) Cytotoxicity against human HepG2 cell lines

[1] = system: S. mansoni juvenile worms; assay: S. mansoni juvenile worm assay, in vitro; format: cell-based; conditions: Schistosoma mansoni, read-out: S. mansoni Juvenile
Protocol: as §1

S. mansoni adult worms = assay: S. mansoni adult worm assay, in vitro; format: cell-based; conditions: Schistosoma mansoni, read-out: S. mansoni Adult
Protocol: as §1

juvenile worms = assay: In vivo mouse model infected with juvenile worms, worm recovery; set-up: species or system S. mansoni; conditions: Schistosoma mansoni, 360 h, mice, juvenile infection, Formulation F1, read-out: Percent worm reduction
Protocol: Methods for the subcutaneous infection of mice and subsequent worm recovery were as described in Mansour et al (2016) except that infection was with 150 cercariae and the perfusion medium was citrate saline (0.9% sodium chloride, 1.5% tri-sodium citrate). Perfusion was carried out 8 days (adult infections) or 15 days (juvenile infections) after treatment. Perfuseate was collected into 30 mL universal tubes. RBC (Red Blood Cells) were removed by allowing the perfuseate to settle for 10 min, removal of most of the supernatant and washing once as above with 10 mL perfusion medium. A drop of dilute aqueous saponin solution was added to lyse any remaining RBC and the worm suspension poured into a grid-marked small petri dish. The tube was rinsed out into the petri dish and examined for any remaining worms. Worms were counted using a dissecting microscope. The mouse livers removed after perfusion were squashed between two thick glass plates and examined visually and any remaining worms added to those counted as above.
For testing efficacy against the juvenile worms, treatment was on day 25 post infection and for testing against the adult worms on day 42 post infection. Drugs were suspended in 7% Tween-80/3% Ethanol/double distilled water and drug dispersal was facilitated by vortexing and using a sonicating water bath (Formulation F1). […]

F. hepatica adult fluke = F. hepatica adult fluke motility score, in vitro; format: cell-based, Fasciola hepatica; set-up: key: Good movement Score 1 • (Curled, sticking on wall, movement on petri plate or conical flask); Moderate movement Score 2 • (Less vigor but more than 10 seconds pulses or peristaltic waves); Resting Score 3 • (Less than 10 second pulses in head and body); Apathetic Score 4 • (Head and body with less than 2 second pulses); Faint movement of suckers Score 5 • (Movement of oral or ventral suckers only, whole body paralyzed); Inert Score 6 • (No movement at all or dead); conditions: for F. hepatica motility score after 24 h / F. hepatica motility score after 48 h / F. hepatica motility score after 72 h: adult fluke; for F. hepatica motility score after 24 h: score 1 (good movement) to 6 (inert); for F. hepatica motility score after 48 h / F. hepatica motility score after 72 h: score 1 to 6 (inert)
Text: The routine biological assays using adult liver fluke are described in Alessandra Crusco, Cinzia Bordoni, Anand Chakroborty, Kezia C. L. Whatley, Helen Whiteland, Andrew D. Westwell, Karl F. Hoffmann, “Design, synthesis and anthelmintic activity of 7-keto-sempervirol analogues”, European Journal of Medicinal Chemistry, Volume 152, 2018, Pages 87-100.
The routine biological assays using adult or juvenile S. mansoni worms and cytotoxicity assays using MRC-5 cells have been disclosed previously in Mansour, N. R., et al. (2016). “High Throughput Screening Identifies Novel Lead Compounds with Activity against Larval, Juvenile and Schistosoma mansoni PLoS Negl Trop Dis 10(4): e0004659. […] Motility is scored as per the table below: • Good movement Score 1 • (Curled, sticking on wall, movement on petri plate or conical flask) • Moderate movement Score 2 • (Less vigor but more than 10 seconds pulses or peristaltic waves) • Resting Score 3 • (Less than 10 second pulses in head and body) • Apathetic Score 4 • (Head and body with less than 2 second pulses) • Faint movement of suckers Score 5 • (Movement of oral or ventral suckers only, whole body paralyzed) • Inert Score 6 • (No movement at all or dead) • (b) S. mansoni adult worms • (c) S. mansoni juvenile worms • (d) S. haemotobium adult worms • (e) Cytotoxicity against human MRC-5 cell line • (f) Cytotoxicity against human HepG2 cell lines

COc1ccc(-c2c(C(C)C)nc3cnc(-c4cccc(C(F)(F)F)c4)cn23)cc1O [Example 1, 2-methoxy-5-[2-(propan-2-yl)-6-[3-(trifluoromethyl)phenyl]imidazo[1,2-a]pyrazin-3-yl]phenol]
Cytotox HepG2 (human HepG2 cell lines): >11.1 µM
Cytotox MRC-5 (human MRC-5 cell line): 21.8 µM

CC(C)c1nc2cnc(-c3cccc(C(F)(F)F)c3)cn2c1-c1ccc(OP(=O)(O)O)cc1F [Example 3, 3-fluoro-4-[2-(propan-2-yl)-6-[3-(trifluoromethyl)phenyl]imidazo[1,2-a]pyrazin-3-yl]phenoxyphosphonic acid]
IC50 [1]: 130 nM
Cytotox HepG2 (human HepG2 cell lines): 9.2 µM
IC50 (S. mansoni adult worms): < 49 nM

Cc1nc2cnc(-c3cccc(C(F)(F)F)c3)cn2c1-c1ccc(O)cc1F [Example 6, 3-fluoro-4-[2-methyl-6-[3-(trifluoromethyl)phenyl]imidazo[1,2-a]pyrazin-3-yl]phenol]
Cytotox MRC-5 (human MRC-5 cell line): 15.8 µM

CCc1nc2cnc(-c3cccc(C(F)(F)F)c3)cn2c1-c1ccc(OC)c(O)c1 [Example 7, 2-methoxy-5-[2-ethyl-6-[3-(trifluoromethyl)phenyl]imidazo[1,2-a]pyrazin-3-yl]phenol]
Cytotox HepG2 (human HepG2 cell lines): >30 µM
Cytotox MRC-5 (human MRC-5 cell line): >50 µM

CCc1nc2cnc(-c3cccc(C(F)(F)F)c3)cn2c1-c1ccc(O)cc1F [Example 8, 3-fluoro-4-[2-ethyl-6-[3-(trifluoromethyl)phenyl]imidazo[1,2-a]pyrazin-3-yl]phenol]
Cytotox HepG2 (human HepG2 cell lines): 18.7 µM
Cytotox MRC-5 (human MRC-5 cell line): 17.3 µM

CC(C)c1nc2cnc(-c3cccc(C(F)(F)F)c3)cn2c1-c1ccc(O)cc1F [Example 9, 3-fluoro-4-[2-(propan-2-yl)-6-[3-(trifluoromethyl)phenyl]imidazo[1,2-a]pyrazin-3-yl]phenol]
Cytotox HepG2 (human HepG2 cell lines): 9 µM
Cytotox MRC-5 (human MRC-5 cell line): 13.7 µM

Cc1nc2cnc(-c3ccc(F)c(C(F)(F)F)c3)cn2c1-c1ccc(O)cc1F [Example 10, 3-fluoro-4-[2-methyl-6-[4-fluoro-3-(trifluoromethyl)phenyl]imidazo[1,2-a]pyrazin-3-yl]phenol]
Cytotox HepG2 (human HepG2 cell lines): >11.1 µM
Cytotox MRC-5 (human MRC-5 cell line): 14.4 µM

CC(C)c1nc2cnc(-c3ccc(F)c(C(F)(F)F)c3)cn2c1-c1c(F)cc(O)cc1F [Example 17, 3,5-difluoro-4-[2-(propan-2-yl)-6-[4-fluoro-3-(trifluoromethyl)phenyl]imidazo[1,2-a]pyrazin-3-yl]phenol]
inhibition in vivo at 50 mg/kg (juvenile worms; oral 50 mg/kg): 38%
inhibition in vivo at 200 mg/kg (juvenile worms; oral 200 mg/kg): 84%
Mean motility score of F hepatica at 24 h (F. hepatica adult fluke; 0.04 μM): 1, 1, 1
Mean motility score of F hepatica at 48 h (F. hepatica adult fluke; 0.04 μM): 1, 1, 1
Mean motility score of F hepatica at 72 h (F. hepatica adult fluke; 0.04 μM): 1, 1, 1
Mean motility score of F hepatica at 24 h (F. hepatica adult fluke; 0.2 μM): 3
Mean motility score of F hepatica at 48 h (F. hepatica adult fluke; 0.2 μM): 3
Mean motility score of F hepatica at 72 h (F. hepatica adult fluke; 0.2 μM): 6
Mean motility score of F hepatica at 24 h (F. hepatica adult fluke; 1 μM): 6, 6, 6
Mean motility score of F hepatica at 48 h (F. hepatica adult fluke; 1 μM): 6, 6, 6
Mean motility score of F hepatica at 72 h (F. hepatica adult fluke; 1 μM): 6, 6, 6
Mean motility score of F hepatica at 24 h (F. hepatica adult fluke; 5 μM): 6, 6, 6
Mean motility score of F hepatica at 48 h (F. hepatica adult fluke; 5 μM): 6, 6, 6
Mean motility score of F hepatica at 72 h (F. hepatica adult fluke; 5 μM): 6, 6, 6
F. hepatica motility score after 24 h (F. hepatica adult fluke; 5 μM): (6, 6, 6) at 5 μM
F. hepatica motility score after 48 h (F. hepatica adult fluke; 5 μM): (6, 6, 6) at 5 μM
F. hepatica motility score after 72 h (F. hepatica adult fluke; 5 μM): (6, 6, 6) at 5 μM
Cytotox HepG2 (human HepG2 cell lines): 7.1 µM

CC(C)c1nc2cnc(-c3ccc(F)c(C(F)(F)F)c3)cn2c1-c1c(F)cc(OP(=O)(O)O)cc1F [Example 40, 3,5-difluoro-4-{6-[4-fluoro-3-(trifluoromethyl)phenyl]-2-(propan-2-yl)imidazo[1,2-a]pyrazin-3-yl}phenoxyphosphonic acid]
IC50 [1]: 25 nM
Cytotox HepG2 (human HepG2 cell lines): 6.5 µM
IC50 (S. mansoni adult worms): 27 nM

Cc1n[nH]c2ccc(-c3c(C(C)C)nc4cnc(-c5cccc(C(F)(F)F)c5)cn34)cc12 [Example 51, 2-Isopropyl-3-(3-methyl-1H-indazol-5-yl)-6-(3-trifluoromethyl-phenyl)-imidazo[1,2-a]pyrazine]
IC50 ([1]; juvenile worms in vitro, IC50): 830 nM
Cytotox HepG2 (human HepG2 cell lines): 10.3 µM

CC(C)c1nn2ccc(-c3ccc(F)c(C(F)(F)F)c3)cc2c1-c1ccc2[nH]ncc2c1F [Example 55, 4-Fluoro-5-[5-(4-fluoro-3-trifluoromethyl-phenyl)-2-isopropylpyrazolo[1,5-a]pyridin-3-yl]-1H-indazole]
IC50 ([1]; juvenile worms in vitro, IC50): 22 nM
F. hepatica motility score after 24 h (F. hepatica adult fluke; 5 μM): (6, 6, 6) at 5 μM
F. hepatica motility score after 48 h (F. hepatica adult fluke; 5 μM): (6, 6, 6) at 5 μM
F. hepatica motility score after 72 h (F. hepatica adult fluke; 5 μM): (6, 6, 6) at 5 μM
Cytotox HepG2 (human HepG2 cell lines): 11.1 µM
IC50 (S. mansoni adult worms; adult worms in vitro): 28 nM

O=P(O)(O)Oc1cc(F)c(-c2c(C3CC3)nc3cnc(-c4ccc(F)c(C(F)(F)F)c4)cn23)c(F)c1 [Example 62, Phosphoric acid mono-{4-[2-cyclopropyl-6-(4-fluoro-3-trifluoromethyl-phenyl)-imidazo[1,2-a]pyrazin-3-yl]-3,5-difluoro-phenyl} ester]
IC50 [1]: 3.7 nM
Cytotox HepG2 (human HepG2 cell lines): 14.8 µM

CC(C)c1nc2ccc(-c3cccc(C(F)(F)F)c3)cn2c1-c1ccc(O)cc1F [Example 94, 3-fluoro-4-[2-isopropyl-6-[3-(trifluoromethyl)phenyl]imidazo[1,2-a]pyridin-3-yl]phenol]
IC50 ([1]; juvenile worms in vitro, IC50): 250 nM
F. hepatica motility score after 24 h (F. hepatica adult fluke; 5 μM): (6, 6, 6)
F. hepatica motility score after 48 h (F. hepatica adult fluke; 5 μM): (6, 6, 6)
F. hepatica motility score after 72 h (F. hepatica adult fluke; 5 μM): (6, 6, 6)
Cytotox HepG2 (human HepG2 cell lines): 10.6 µM
